“Also recorded” adds a separate entry of the source.
Experiments:
[1] = system: AT derm mice (pTek-tTA:pTetOS-Tek); test: Atopic dermatitis (AT derm) transgenic mouse model and wild-type littermates, 30-day Vasculotide treatment; assay type: in vivo, CD1 mice
Description: Briefly, construction of the driver transgene, pTek-tTA, and the responder transgenes, pTetOS-Tek, pTetos-Ang1, and pTetos-Ang2 have been described previously. All transgenic lines were maintained and genotyped as previously described (Voskas et al. (2005) Am. J. Pathol. 166(3):843-855, Ward et al. (2004) Am. J. Pathol. 165(3):889-899, Bureau et al. (2006) Am. J. Physiol. Heart Circ. Physiol. 291(2):H948-965). Males were housed with a single female for 14 to 20 days and then separated into individual cages. CD1 mice (an outbred mouse line) were maintained in a barrier facility. All adult mice used in these studies were 2 to 6 months old.
Mouse skin tissue was fixed in 4% paraformaldehyde (Sigma, St. Louis, Mo.) for 16 hours at 4 degrees Celsius, and transferred to 70% ethanol. Tissues were subsequently paraffin embedded and sectioned at 4 μM on SuperFrost glass slides. Tissue slides were stained for hematoxylin and eosin using standard techniques. For immunohistochemistry, anti-E-Selectin (rat; Pharmingen, La Jolla, Calif.), anti-VCAM1 (rat; Pharmingen), anti-ICAM1 (Hamster; Pharmingen, La Jolla, Calif.), primary antibodies were detected using biotinylated secondary antibodies as described in the Vectastain Elite ABC kit (Vector Laboratories, Burlingame, Calif.). Slides were processed and counterstained with methyl green using standard techniques. Slides were analyzed and photos were processed using a Leica compound light microscope coupled to a Leica DFC300FX camera (Wetzlar, Germany). Skin tissue was taken (biopsy) at day 0, prior to initiation of treatment and at 30 days. Gross phenotypic examination was conducted and mice were photographed in a standard format using a Digital Canon Eos Rebel.
Blood was collected from all mice on day 0 (prior to treatment) and day 30 (after 30 days of treatment). On day 0, approximately 50 μl was collected via tail vein puncture into a lithium heparin micro tube. Day 30 blood was collected via cardiac puncture into a lithium heparin micro tube. Both blood samples were prepared for storage and subsequent analysis using Phosflow Lyse/Fix Buffer (BD Biosciences, Franklin Lakes, N.J.), according to manufacturers instructions. Cells were stained for IgE versus free FITC and characteristic populations of basophils and eosinophils were identified.
Normal and double transgenic (pTek-tTA:pTetOS-Tek) CD1 mice were injected intra peritoneally with either sterile PBS, pH 7.4 (vehicle) or Vasculotide (40 μg/kg) every three days for the period of 30 days. Mice were observed closely during this period for phenotypic resolution and/or any potential ill effects.
Plasma was collected in lithium/heparin microtubes from all mice following 30 days of treatment with Vasculotide or vehicle. Plasma was diluted 1:8 in sample diluent (BD Biosciences, Franklin Lakes, N.J.). A multiplex analysis of 12 different mouse cytokines was examined according to manufacturer's instructions. Analysis and cytokine/chemokine quantification was performed using the manufacturers FCAP software package (BD Biosciences, Franklin Lakes, N.J.).
Blood was collected from mice as previously described. Separated plasma was diluted 1:4 in calibrator diluent according to manufacturer's specifications (R&D Biosystems, Minneapolis, Minn. USA). All aspects of the assay were conducted according to manufacturer's directions. Quantification of plasma eotaxin concentrations was performed by linear regression analysis from assessment of defined amounts of eotaxin standard.

CFU-G = test: Methocult colony assay (ex vivo bone marrow proliferation and differentiation); assay type: cell-based, CD1 mice; settings: 1 ng/ml or 10 ng/ml, Methocult M3434, 7 days
Protocol: Bone marrow was flushed from the femur bones of two month old CD1 mice and was suspended in Iscove's Modified Dulbecco's Media (Sigma, St. Louis, Mo.) at a concentration of 1×10^5 per ml. Cells were thoroughly suspended in methocellulose M3434 media (Stem Cell Technologies, Vancouver, BC) such that 1×10^4 cells per 35 mm tissue culture dish were dispensed. Prior to dispensing into the tissue culture dishes either vehicle (PBS) or Vasculotide 1 ng/ml or 10 ng/ml was mixed in. Plates were placed in an incubator at 37° C., 5% CO2 for 7 days without replenishment of vehicle or Vasculotide. […] Using an ex vivo model of bone marrow proliferation and differentiation (methocult), the influence of Vasculotide on bone marrow extracted from the femurs of normal CD1 mice was observed. Bone marrow was disaggregated and resuspended in methocult M3434 media plus Vasculotide (Vasc 1 ng/ml or 10 ng/ml) or control (PBS).

[2] = AT derm and wild-type mice, 30 days treatment
[3] = AT derm mice, skin and underlying muscle, 40 μg/kg every 3 days for 30 days
[4] = wild-type (or single transgenic) mice, 30 days, p=0.0027

Vasculotide: Modified T7 peptide (CHHHRHSF, SEQ ID NO:2) conjugated to 10 kDa tetrameric polyethylene glycol-maleimide; Tie2 binding peptide mimetic
body weight change during 30-day treatment ([1]; 40 μg/kg every 3 days for 30 days, vs PBS): no statistically significant alteration; also recorded: no statistically detectable alteration
plasma eotaxin levels (ELISA) ([1]; AT Derm mice vs PBS treated AT Derm mice, p=0.0208): statistically significant decrease
basophil numbers in peripheral blood (FACS) [1, 2]: marked reduction; also recorded: Decreased numbers
eosinophil numbers in peripheral blood (FACS) [1, 2]: marked reduction; also recorded: Decreased numbers
number of granulocytes in the bone marrow ([1]; AT derm and wild-type mice, treated or untreated): unchanged
gross phenotype: erythema, micro-haemorrhages of the ears, scaly plaque formation on the tail ([1]; AT derm mice (moderate or severe), 40 μg/kg every 3 days for 30 days): complete or almost complete resolution; also recorded: Gross phenotypic improvement
plasma IL-1β (cytometric bead array) ([1]; AT derm mice vs PBS-treated AT derm mice, 30 days, p=0.0492): reduction
erythema after the third dose (9 days) ([1]; AT derm mice, 40 μg/kg every three days): reduction in erythema
epidermal hyperplasia and infiltration of leukocytes (H&E staining of skin) ([1]; AT derm mice, 30 days treatment vs PBS): dramatic reduction; also recorded: marked reduction
E-selectin expression (immunohistochemistry) [1, 3]: very low or absent levels of positive staining; also recorded: dramatic reduction
ICAM1 expression (immunohistochemistry) [1, 3]: very low or absent levels of positive staining; also recorded: dramatic reduction
VCAM1 expression (immunohistochemistry) [1, 3]: very low or absent levels of positive staining; also recorded: dramatic reduction
neutrophils in peripheral blood (FACS) ([1]; control and AT-Derm mice, 30 days treatment): No effects
plasma IL-5 (cytometric bead array) [1, 4]: statistically significant decrease
plasma IL-13 (cytometric bead array) [1, 4]: statistically significant decrease
plasma MIP1b (cytometric bead array) ([1]; wild-type (or single transgenic) mice, 30 days, p=0.003): statistically significant decrease
plasma IL-9 (cytometric bead array) ([1]; wild-type (or single transgenic) mice, 30 days, p=0.0079): statistically significant decrease
plasma MCP1 (cytometric bead array) ([1]; wild-type (or single transgenic) mice, 30 days, p=0.0116): statistically significant decrease
plasma MIG (cytometric bead array) ([1]; wild-type (or single transgenic) mice, 30 days, p=0.0117): statistically significant decrease
plasma TNF-α (cytometric bead array) ([1]; wild-type (or single transgenic) mice, 30 days, p=0.0309): statistically significant decrease
plasma MIP1a (cytometric bead array) ([1]; wild-type (or single transgenic) mice, 30 days, p=0.0473): statistically significant decrease
plasma IL-17 (cytometric bead array) ([1]; wild-type (or single transgenic) mice, 30 days, p=0.0492): statistically significant decrease
plasma IL-12/IL-23 p40 (cytometric bead array) ([1]; wild-type (or single transgenic) mice, 30 days, p=0.0494): statistically significant decrease
overt effects / appearance of single transgenic or wild-type littermates ([1]; wild-type or single transgenic mice, 40 μg/kg every three days): no overt effects; also recorded: indistinguishable from PBS-treated
all other populations of cells (colonies) (CFU-G): statistically indistinguishable from PBS control
total CFU-G numbers (CFU-G; vs PBS): statistically significant, dose-dependent reduction; also recorded: dose dependent, statistically significant reduction

From patent US9186390B2, “Methods and uses of TIE2 binding and/or activating agents” (Sunnybrook Health Sciences Center, priority 2010, dated 2015)
